Test: recombinant barcode read abundance after kanamycin selection (control-corrected) (log10(CPM+1)); higher = more efficient recombination; sequences stand for … in AGTGCAGAGAAAATCGGCCAGTTTTCTCTGCCTGCAGTCCGCATGCCGT…AGATTTATGCAGCGGACTGCCTTTCTCCCAAAGTGATAAACCGGACAGTATCATGGACCGGTTTTCCCGGTAATCCGTATTTGCAAGGTTGGTTTCACT; site = the 11-nt target
Outline: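 Two replicates per condition were plated: chloramphenicol/ampicillin LB agar for the control, and chloramphenicol/ampicillin/kanamycin with 0.1 mM IPTG for selection. The pooled E. coli screen behind them paired targets with IS621 bridge RNA target-binding loops. Recombination efficiency is expressed from averaged, control-corrected barcode counts per million at recombinant junctions, as log10(CPM+1).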
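Further: IS621 recombinase and bridge RNA in Escherichia coli cells.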

Row | Sequence | recombinant barcode read abundance (log10)
1 | GTCAATTCTTGGGTTCTAACCTGTTGCCT (site GTCAATTCTAG) | 0.684
2 | GTCACAACTTGGGTTCTAACCTGTTGCCG (site AGGTTTGCTAA) | 0.056
3 | GTCACAACTTGGGTTCTAACCTGTTGCCG (site GTCACAACTCG) | 0.339
4 | GTCACAGCTTGGGTTCTAACCTGTTGCCT (site GTCAAAGCTTG) | 0.0492
5 | GTCACAGCTTGGGTTCTAACCTGTTGCCT (site GTCACAGCTAG) | 1.23
6 | GTCAGATCTTGGGTTCTAACCTGTTGCTT (site GTCAGATCTAA) | 0.398
7 | GTCAGATCTTGGGTTCTAACCTGTTGCTT (site TCGTTCGCTCG) | 0.0896
8 | GTCAGGGCTTGGGTTCTAACCTGTTGCCT (site GTCAGGGCTAG) | 0.275
9 | GTCAGGGCTTGGGTTCTAACCTGTTGCCT (site GTCATGGCTAG) | 0.197
10 | GTCATGCCTTGGGTTCTAACCTGTTGCGT (site GTCATGCCTAC) | 1.58
11 | GTCATGCCTTGGGTTCTAACCTGTTGCGT (site GTCTTCCCTAC) | 0.125
12 | GTCATGTCTTGGGTTCTAACCTGTTGCTG (site ACAGGTCCTTC) | 0.0358
13 | GTCATGTCTTGGGTTCTAACCTGTTGCTG (site GTCATGTCTCA) | 1.5
14 | GTCCAGCCTTGGGTTCTAACCTGTTGCAT (site CTCTAGCCTAT) | 0.0778
15 | GTCCAGCCTTGGGTTCTAACCTGTTGCAT (site GTCCAGCCTAT) | 1.98
16 | GTCCCTCCTTGGGTTCTAACCTGTTGCAT (site GTCCCTCCTAA) | 0.746
17 | GTCCCTCCTTGGGTTCTAACCTGTTGCAT (site GTCCCTCCTAC) | 0.405
18 | GTCCCTCCTTGGGTTCTAACCTGTTGCAT (site GTCCCTCCTAG) | 0.16
19 | GTCCCTCCTTGGGTTCTAACCTGTTGCAT (site GTCCCTCCTAT) | 1.96
20 | GTCCCTCCTTGGGTTCTAACCTGTTGCTT (site GTCCCTCCTAA) | 0.94
21 | GTCCCTCCTTGGGTTCTAACCTGTTGCTT (site GTCCCTCCTAC) | 0.104
22 | GTCCCTCCTTGGGTTCTAACCTGTTGCTT (site GTCCCTCCTAG) | 0.201

Row | Sequence | recombinant barcode read abundance (log10)
23 | GTCCCTCCTTGGGTTCTAACCTGTTGCTT (site GTCCCTCCTAT) | 0.453
24 | GTCCGTCCTTGGGTTCTAACCTGTTGCAT (site GTCCGTCCTAA) | 0.178
25 | GTCCGTCCTTGGGTTCTAACCTGTTGCAT (site GTCCGTCCTAC) | 0.688
26 | GTCCGTCCTTGGGTTCTAACCTGTTGCAT (site GTCCGTCCTAG) | 0.129
27 | GTCCGTCCTTGGGTTCTAACCTGTTGCAT (site GTCCGTCCTAT) | 1.77
28 | GTCCTAACTTGGGTTCTAACCTGTTGCAC (site GTCCTAACTGT) | 2.08
29 | GTCCTAACTTGGGTTCTAACCTGTTGCAC (site GTCCTACCTTT) | 0.0749
30 | GTCCTACCTTGGGTTCTAACCTGTTGCCT (site GTCATACCTAG) | 0.0144
31 | GTCCTACCTTGGGTTCTAACCTGTTGCCT (site GTCCTACCTAG) | 1.54
32 | GTCCTACCTTGGGTTCTAACCTGTTGCCT (site GTCGTACCTAG) | 0.503
33 | GTCCTACCTTGGGTTCTAACCTGTTGCCT (site GTCTTACCTAG) | 0.588
34 | GTCGACACTTGGGTTCTAACCTGTTGCCT (site GTCGACACTAG) | 1.5
35 | GTCGACACTTGGGTTCTAACCTGTTGCCT (site GTCGAGTCTAG) | 0.126
36 | GTCGACGCTTGGGTTCTAACCTGTTGCCT (site GTCGACCCTAG) | 0.158
37 | GTCGACGCTTGGGTTCTAACCTGTTGCCT (site GTCGACGCTAG) | 0.635
38 | GTCGCCACTTGGGTTCTAACCTGTTGCCT (site GTAGCCACTAG) | 0.239
39 | GTCGCCACTTGGGTTCTAACCTGTTGCCT (site GTCGCCACTAG) | 0.0549
40 | GTCGCCACTTGGGTTCTAACCTGTTGCCT (site GTGGCCACTAG) | 0.159
41 | GTCGCCACTTGGGTTCTAACCTGTTGCCT (site GTTGCCACTAG) | 0.196
42 | GTCGCGGCTTGGGTTCTAACCTGTTGCCT (site GTCGCGACTAG) | 0.454
43 | GTCGCGGCTTGGGTTCTAACCTGTTGCCT (site GTCGCGCCTAG) | 0.182
44 | GTCGCGGCTTGGGTTCTAACCTGTTGCCT (site GTCGCGGCTAG) | 0.418

Row | Sequence | recombinant barcode read abundance (log10)
45 | GTCGCGGCTTGGGTTCTAACCTGTTGCCT (site GTCGCGTCTAG) | 0.324
46 | GTCGCGTCTTGGGTTCTAACCTGTTGCCT (site GTCGCGACTAG) | 0.198
47 | GTCGCGTCTTGGGTTCTAACCTGTTGCCT (site GTCGCGCCTAG) | 0.738
48 | GTCGCGTCTTGGGTTCTAACCTGTTGCCT (site GTCGCGGCTAG) | 0.392
49 | GTCGCGTCTTGGGTTCTAACCTGTTGCCT (site GTCGCGTCTAG) | 0.328
50 | GTCGGAGCTTGGGTTCTAACCTGTTGCCG (site GTCGGAGCTCA) | 0.0109
51 | GTCGGAGCTTGGGTTCTAACCTGTTGCCG (site GTCGGAGCTCC) | 0.152
52 | GTCGGAGCTTGGGTTCTAACCTGTTGCCG (site GTCGGAGCTCG) | 0.218
53 | GTCGGAGCTTGGGTTCTAACCTGTTGCCG (site GTCGGAGCTCT) | 0.435
54 | GTCGGAGCTTGGGTTCTAACCTGTTGCGG (site GTCGGAGCTCA) | 0.282
55 | GTCGGAGCTTGGGTTCTAACCTGTTGCGG (site GTCGGAGCTCC) | 1.97
56 | GTCGGAGCTTGGGTTCTAACCTGTTGCGG (site GTCGGAGCTCG) | 0.0393
57 | GTCGGAGCTTGGGTTCTAACCTGTTGCGG (site GTCGGAGCTCT) | 1.29
58 | GTCGGAGCTTGGGTTCTAACCTGTTGCTG (site GTCGGAGCTCA) | 0.757
59 | GTCGGAGCTTGGGTTCTAACCTGTTGCTG (site GTCGGAGCTCC) | 0.511
60 | GTCGGAGCTTGGGTTCTAACCTGTTGCTG (site GTCGGAGCTCG) | 0.353
61 | GTCGGAGCTTGGGTTCTAACCTGTTGCTG (site GTCGGAGCTCT) | 0.737
62 | GTCGGCACTTGGGTTCTAACCTGTTGCCT (site GTCGGAACTAG) | 0.359
63 | GTCGGCACTTGGGTTCTAACCTGTTGCCT (site GTCGGCACTAG) | 0.491
64 | GTCGGCACTTGGGTTCTAACCTGTTGCCT (site GTCGGGACTAG) | 0.653
65 | GTCGGCACTTGGGTTCTAACCTGTTGCCT (site GTCGGTACTAG) | 0.221
66 | GTCGGCGCTTGGGTTCTAACCTGTTGCCT (site GTAGGCGCTAG) | 0.107

Row | Sequence | recombinant barcode read abundance (log10)
67 | GTCGGCGCTTGGGTTCTAACCTGTTGCCT (site GTCGGCGCTAG) | 0.912
68 | GTCGGCGCTTGGGTTCTAACCTGTTGCCT (site GTGGGCGCTAG) | 0.531
69 | GTCGGCGCTTGGGTTCTAACCTGTTGCCT (site GTTGGCGCTAG) | 0.256
70 | GTCGGGACTTGGGTTCTAACCTGTTGCCT (site GTCGGAACTAG) | 0.863
71 | GTCGGGACTTGGGTTCTAACCTGTTGCCT (site GTCGGCACTAG) | 0.113
72 | GTCGGGACTTGGGTTCTAACCTGTTGCCT (site GTCGGGACTAG) | 1.51
73 | GTCGGGACTTGGGTTCTAACCTGTTGCCT (site GTCGGTACTAG) | 0.0446
74 | GTCGTAGCTTGGGTTCTAACCTGTTGCCT (site GACGTAGCTAG) | 0.464
75 | GTCGTAGCTTGGGTTCTAACCTGTTGCCT (site GCCGTAGCTAG) | 0.0842
76 | GTCGTAGCTTGGGTTCTAACCTGTTGCCT (site GGCGTAGCTAG) | 0.116
77 | GTCGTAGCTTGGGTTCTAACCTGTTGCCT (site GTCGTAGCTAG) | 0.256
78 | GTCTAAGCTTGGGTTCTAACCTGTTGCCT (site GTCTAAGCTAG) | 0.171
79 | GTCTAAGCTTGGGTTCTAACCTGTTGCCT (site GTCTGAGCTAG) | 0.0375
80 | GTCTACTCTTGGGTTCTAACCTGTTGCTG (site GTCTACTCTCA) | 1.65
81 | GTCTACTCTTGGGTTCTAACCTGTTGCTG (site GTCTTCTCTAA) | 0.0134
82 | GTCTCATCTTGGGTTCTAACCTGTTGCCT (site GTCTAATCTAG) | 0.0787
83 | GTCTCATCTTGGGTTCTAACCTGTTGCCT (site GTCTCATCTAG) | 0.154
84 | GTCTCATCTTGGGTTCTAACCTGTTGCCT (site GTCTGATCTAG) | 0.0892
85 | GTCTCATCTTGGGTTCTAACCTGTTGCCT (site GTCTTATCTAG) | 0.0289
86 | GTCTCGGCTTGGGTTCTAACCTGTTGCTG (site GGGTCGGCTCA) | 0.0356
